The results in this text go back to ChEMBL document CHEMBL1201862, “PubChem BioAssay data set” (2004).

Some test systems named below: NCI-H23; MDA-N; UO-31; NCI/ADR-RES; A498; OVCAR-5; SW-620; HCT-15; UACC-257; PC-3; SF-539; NCI-H460; CAKI-1; HCC 2998; MOLT-4; ACHN; U-251; Hs-578T; EKVX; A549.
Common to all, as to test: NCI tumour cell line growth inhibition, 48 h

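48-hour exposure; five concentrations; linearly interpolated endpoints. GI50 is the concentration that inhibits growth by half.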 Active and inactive are the calls of the source. Rule as the data show it: active = GI50 up to about 1.1 µM and inactive = higher.

On to `COc1ccc2c(c1)c1nn(CCN(C)C)c3ccc4c(=O)n(CCN(C)C)c(=O)n2c4c13`, for which the GI50 in the assay on NCI-H23 is < 0.0241 µM (active); in the assay on MDA-N, < 0.0325 µM (active); with UO-31, 0.0255 µM (active); in the assay on NCI/ADR-RES, 0.0148 µM (active); in the assay on A498, 0.114 µM (active); with OVCAR-5, < 0.0223 µM (active). Moreover, the GI50 with SW-620 was < 0.01 µM (active); with HCT-15, below 0.01 µM; with UACC-257, 0.208 µM (active); with PC-3 it was 0.0103 µM (active); in the assay with SF-539, 0.169 µM (active); in the assay on NCI-H460 it was < 0.01 µM (active). The GI50 in the assay on CAKI-1 is 0.0682 µM (active); with HCC 2998 it was < 0.01 µM (active); with MOLT-4 it was < 0.01 µM (active); in the assay on ACHN it was < 0.01 µM (active); with U-251, < 0.01 µM (active); in the assay with Hs-578T, 0.0463 µM (active). Further, the GI50 in the assay on EKVX was 0.0746 µM (active); with A549 it was < 0.01 µM (active).
On to `CCN(CC)CCCNc1ccc2ncn3c4ccc(O)cc4c(=O)c1c23`, for which the GI50 is 2.19 µM (inactive) in the assay on NCI-H23; 6.08 µM (inactive) in the assay with MDA-N; 2.16 µM (inactive) in the assay with UO-31; > 10 µM (inactive) in the assay with NCI/ADR-RES; 4.45 µM (inactive) in the assay on A498; 1.98 µM (inactive) in the assay with OVCAR-5. Also, the GI50 in the assay with SW-620 was 0.578 µM (active); in the assay on HCT-15, 2.71 µM; in the assay on UACC-257, 11.5 µM (inactive); in the assay with PC-3, 1.41 µM (inactive); in the assay on SF-539, 2.9 µM (inactive); with NCI-H460, 0.105 µM (active). The GI50 in the assay with CAKI-1 was 0.365 µM (active); with HCC 2998, 2.15 µM (inactive); with MOLT-4, 0.0411 µM (active); in the assay with ACHN it was 0.272 µM (active); in the assay on U-251, 1.66 µM (inactive); with Hs-578T, 0.39 µM (active). For the same compound, the GI50 with EKVX is 7.41 µM (inactive); with A549, 0.231 µM (active).
For `COc1c2ccccc2c(OC)c2nc(C)ccc12`, the GI50 in the assay on NCI-H23, in the assay with MDA-N, in the assay with UO-31, with NCI/ADR-RES, in the assay with A498 and in the assay on OVCAR-5 was > 100 µM (inactive) in each case. For the same compound, the GI50 in the assay on SW-620 was > 100 µM (inactive); with HCT-15 it was 41.3 µM; in the assay on UACC-257, > 77.3 µM (inactive); with PC-3, > 91 µM (inactive); in the assay on SF-539, > 100 µM (inactive); with NCI-H460, 39.7 µM (inactive). Also, the GI50 with CAKI-1 was > 94 µM (inactive); in the assay on HCC 2998, > 100 µM (inactive); in the assay with MOLT-4, 40.6 µM (inactive); in the assay with ACHN it was > 100 µM (inactive); in the assay on U-251, 42.5 µM (inactive); in the assay with Hs-578T it was > 100 µM (inactive). Also, the GI50 with EKVX and in the assay on A549 was > 100 µM (inactive) in each case.
As for `O=C(NO)c1ccc(C(=O)NO)cc1`, the GI50 was > 100 µM (inactive) in the assay on NCI-H23; > 100 µM (inactive) in the assay with MDA-N; 39.3 µM (inactive) in the assay on UO-31; 3.21 µM (inactive) in the assay on NCI/ADR-RES; > 100 µM (inactive) in the assay on A498; > 100 µM (inactive) with OVCAR-5. In addition, the GI50 in the assay with SW-620 is 80.9 µM (inactive); in the assay with HCT-15 it was above 100 µM; in the assay on UACC-257, 56.9 µM (inactive); in the assay with PC-3 it was > 100 µM (inactive); in the assay on SF-539 it was > 100 µM (inactive); in the assay with NCI-H460, > 100 µM (inactive). For the same compound, the GI50 is > 100 µM (inactive) in the assay with CAKI-1; 9.86 µM (inactive) in the assay with HCC 2998; 24.9 µM (inactive) in the assay on MOLT-4; > 100 µM (inactive) in the assay on ACHN; 1.25 µM (inactive) in the assay on U-251; > 100 µM (inactive) with Hs-578T. Besides, the GI50 with EKVX and in the assay on A549 was > 100 µM (inactive) throughout.
Regarding `COc1ccccc1N1CCN(CCCCNC(=O)c2ccc([N+](=O)[O-])o2)CC1`, the GI50 in the assay on NCI-H23 was 5.79 µM (inactive); with MDA-N it was 3.18 µM (inactive); in the assay with UO-31 it was 10.4 µM (inactive); in the assay on NCI/ADR-RES, 20 µM (inactive); with A498, 9.79 µM (inactive); in the assay on OVCAR-5, 15.1 µM (inactive). For the same compound, the GI50 in the assay with SW-620 is 8.22 µM (inactive); with HCT-15, 3.48 µM; in the assay with UACC-257 it was 4.1 µM (inactive); in the assay on PC-3, 13.6 µM (inactive); in the assay with SF-539, 6.1 µM (inactive); in the assay on NCI-H460 it was 3.43 µM (inactive). The GI50 with CAKI-1 is 13.4 µM (inactive); with HCC 2998, 2.42 µM (inactive); in the assay on MOLT-4, 23.1 µM (inactive); in the assay on ACHN, 11.7 µM (inactive); in the assay on U-251, 7.55 µM (inactive); with Hs-578T, 15.5 µM (inactive). Moreover, the GI50 in the assay on EKVX was 16 µM (inactive); in the assay with A549 it was 6.98 µM (inactive).
Consider `COC(=O)C1CC23CCCN4CCC5(c6ccccc6N(C=O)C15CC2)C43` (stereo not given), for which the GI50 in the assay on NCI-H23, in the assay on MDA-N, with UO-31, in the assay with NCI/ADR-RES, in the assay with A498 and with OVCAR-5 was > 100 µM (inactive) each time. The GI50 is > 100 µM (inactive) in the assay on SW-620; above 100 µM with HCT-15; > 100 µM (inactive) with UACC-257; > 100 µM (inactive) in the assay on PC-3; > 100 µM (inactive) in the assay on SF-539; > 100 µM (inactive) in the assay with NCI-H460. Further, the GI50 in the assay on CAKI-1, in the assay on HCC 2998, in the assay on MOLT-4, in the assay on ACHN, with U-251 and in the assay with Hs-578T was > 100 µM (inactive) in each case. The GI50 in the assay on EKVX and in the assay with A549 was > 100 µM (inactive) in each case.
On to `CC(C)(C)OC(=O)NC(CCCCNC(=O)OCc1ccccc1)C(=O)NCCNc1ccc(NCCNC(=O)C(CCCCNC(=O)OCc2ccccc2)NC(=O)OC(C)(C)C)c2c1C(=O)c1ccccc1C2=O` (stereo not given), for which the GI50 was 27.5 µM (inactive) in the assay with NCI-H23; 26.4 µM (inactive) with MDA-N; > 89.7 µM (inactive) with UO-31; 19.8 µM (inactive) with NCI/ADR-RES; > 100 µM (inactive) in the assay with A498; > 100 µM (inactive) in the assay with OVCAR-5. The GI50 in the assay on SW-620 is 70.6 µM (inactive); with HCT-15 it was above 100 µM; with UACC-257, > 100 µM (inactive); in the assay on PC-3 it was > 100 µM (inactive); in the assay with SF-539 it was 17.6 µM (inactive); in the assay with NCI-H460 it was > 100 µM (inactive). Moreover, the GI50 with CAKI-1 is > 100 µM (inactive); in the assay on HCC 2998, 8.67 µM (inactive); in the assay with MOLT-4, > 100 µM (inactive); in the assay with ACHN it was > 100 µM (inactive); in the assay with U-251 it was 3.18 µM (inactive); with Hs-578T it was 4.68 µM (inactive). The GI50 in the assay with EKVX and with A549 was > 100 µM (inactive) each time.
